Patent EP1428519A2, “5-Lipooxygenase inhibitors in deodorants and antiperspirants” (Henkel Kommanditgesellschaft auf Aktien, priority 2002, dated 2004)
Structures can show the parent of a compound that is named as a salt.

These compounds were tested against T1, 5-Lipoxigenase (Homo sapiens, UniProt P09917) (assay: 5-lipoxygenase inhibition in vitro (supernatant of differentiated leukaemia cells, leukotrienes quantified by HPLC)). Conditions: 100 µg raw material as is per ml supernatant; 30 s preincubation at 37° C, 10 min reaction with arachidonic acid; activity without test substance = 100 %; solvent per substance (Ethanol, Wasser or DMSO).
T1 construct: durch Ultraschallbehandlung aufgeschlossen; Größere Zellbestandteile wurden bei 100 000 g abzentrifugiert, wobei 5-Lipoxigenase im Überstand verblieb; endogenous in cells; sonicated; 100 000 g supernatant
T1 sequence (P09917 1-674): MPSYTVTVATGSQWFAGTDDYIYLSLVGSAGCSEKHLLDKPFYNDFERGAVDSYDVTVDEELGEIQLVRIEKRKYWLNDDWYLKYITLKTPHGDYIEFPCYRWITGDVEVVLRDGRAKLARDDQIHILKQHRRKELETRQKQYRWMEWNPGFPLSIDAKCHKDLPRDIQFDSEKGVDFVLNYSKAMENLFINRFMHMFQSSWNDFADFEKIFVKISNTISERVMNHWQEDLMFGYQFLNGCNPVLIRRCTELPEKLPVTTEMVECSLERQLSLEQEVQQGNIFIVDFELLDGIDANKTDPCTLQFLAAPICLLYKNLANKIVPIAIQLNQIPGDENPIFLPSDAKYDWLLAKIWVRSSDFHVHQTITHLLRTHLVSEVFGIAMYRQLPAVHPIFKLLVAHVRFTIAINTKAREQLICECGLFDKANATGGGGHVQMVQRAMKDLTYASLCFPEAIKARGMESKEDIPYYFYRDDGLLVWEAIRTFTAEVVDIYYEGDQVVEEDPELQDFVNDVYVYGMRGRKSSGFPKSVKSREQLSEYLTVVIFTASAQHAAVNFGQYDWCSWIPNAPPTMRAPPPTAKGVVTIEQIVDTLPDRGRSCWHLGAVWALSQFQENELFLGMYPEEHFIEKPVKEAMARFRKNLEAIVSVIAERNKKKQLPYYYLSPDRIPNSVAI
Format: biochemical, menschlichen
From the text: Die 5-Lipoxigenase wurde aus menschlichen Leukämie-Zelllinien durch Zugabe von Dimethylsulfoxid (DMSO), TGF-β1 (transforming growth factor β1) und Dihydroxyvitamin D3 differenziert und dabei zugleich die 5-Lipoxigenase induziert. Nach 4 Tagen im Differenzierungsmedium wurden die Zellen geerntet, in einem Glucose-haltigen PBS-Puffer aufgenommen und durch Ultraschallbehandlung aufgeschlossen. Größere Zellbestandteile wurden bei 100 000 g abzentrifugiert, wobei 5-Lipoxigenase im Überstand verblieb.
Die Bestimmung der 5-Lipoxigenase-Inhibitionswirkung erfolgte gemäß Werz et al., Naunyn-Schmiedeberg's Arch. Pharmacol., 1997, Vol. 456, 441 - 445.
Dem Überstand aus der 5-Lipoxigenase-Herstellung wurden Adenosintriphosphat (ATP) und die zu testenden Rohstoffe zugesetzt. Im vorliegenden Falle wurden 100 µg Rohstoff, so wie er ist, pro Milliliter Überstand eingesetzt. Als Lösemittel wurden je nach Substanz Wasser, Ethanol, DMSO oder Chloroform verwendet.
Die Ansätze wurden für 30 Sekunden bei 37° C vorinkubiert. Anschließend wurde die 5-Lipoxigenase-Reaktion durch Zusatz von Arachidonsäure gestartet. Nach 10 Minuten Reaktionszeit wurde die Reaktion durch Zugabe von Methanol gestoppt. Die durch die Einwirkung der 5-Lipoxigenase auf Arachidonsäure produzierten Leukotriene wurden mittels HPLC quantifiziert. Die Aktivität von 5-Lipoxigenase ohne Zugabe von Testsubstanz wurde zu 100 % gesetzt und die Aktivität der 5-Lipoxigenase mit Hemmstoff darauf bezogen. In Tabelle 1 ist die Hemmwirkung der einzelnen Testsubstanzen in % angegeben.
`CC[C@H](CC[C@@H](C)[C@H]1CC[C@H]2[C@@H]3CC=C4C[C@@H](OS(=O)(=O)O)CC[C@]4(C)[C@H]3CC[C@]12C)C(C)C` [Phytocohesine, Sodium Beta-Sitosteryl Sulfate] was tested, and the Hemmwirkung was 62,8%.
`CC(C)=CCCC(C)(O)C1CC=C(C)CC1` (stereo not drawn) [α-Bisabolol] was tested, and the Hemmwirkung was 90,3%.
`O=C(O)CCCCC1CCSS1` (stereo not drawn) [α-Liponsäure, reference compound] was tested, and the Hemmwirkung was 40,4%.
